Laboratory results: ChEMBL document CHEMBL1132332, “A novel acetylated analogue of dynorphin A-(1-11) amide as a kappa-opioid receptor antagonist” (J Med Chem, 1999)
Square brackets hold non-standard residues; d marks the D form. Peptide text beside a SMILES is read from it.

How the values were obtained:
[1] = biological target: Kappa-type opioid receptor (Homo sapiens, UniProt P41145); assay: The compound was tested for binding affinity against Opioid receptor kappa 1 by using [3H]Diprenorphine as a radioligand
Sequence of Kappa-type opioid receptor (P41145 whole entry): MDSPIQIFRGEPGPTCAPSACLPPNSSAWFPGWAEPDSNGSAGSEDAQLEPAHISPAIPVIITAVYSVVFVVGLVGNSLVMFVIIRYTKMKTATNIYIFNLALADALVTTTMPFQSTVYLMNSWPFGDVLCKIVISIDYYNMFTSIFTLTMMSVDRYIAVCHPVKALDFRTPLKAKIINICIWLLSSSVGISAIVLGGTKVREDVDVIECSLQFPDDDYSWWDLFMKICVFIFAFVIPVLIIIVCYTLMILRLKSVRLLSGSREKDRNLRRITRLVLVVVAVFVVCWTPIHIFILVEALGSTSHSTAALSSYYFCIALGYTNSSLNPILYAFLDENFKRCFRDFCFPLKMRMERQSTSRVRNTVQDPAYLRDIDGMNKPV

[2] = biological target: Delta-type opioid receptor (Homo sapiens, UniProt P41143); assay: The compound was tested for binding affinity against Opioid receptor delta 1 by using [3H]- DPDPE as a radioligand
Sequence of Delta-type opioid receptor (P41143 whole entry): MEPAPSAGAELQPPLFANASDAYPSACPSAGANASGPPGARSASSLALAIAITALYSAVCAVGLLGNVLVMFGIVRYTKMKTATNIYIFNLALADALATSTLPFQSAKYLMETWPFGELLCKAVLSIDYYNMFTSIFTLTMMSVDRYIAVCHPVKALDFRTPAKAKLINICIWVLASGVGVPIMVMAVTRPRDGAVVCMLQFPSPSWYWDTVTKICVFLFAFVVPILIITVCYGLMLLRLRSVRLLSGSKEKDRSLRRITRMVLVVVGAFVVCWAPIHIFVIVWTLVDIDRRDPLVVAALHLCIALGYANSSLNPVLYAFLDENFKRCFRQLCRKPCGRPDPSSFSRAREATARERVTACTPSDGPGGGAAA

Mu-type opioid receptor = Mu-type opioid receptor (Homo sapiens, UniProt P35372); assay: The compound was tested for binding affinity against Opioid receptor mu 1 by using [3H]DAMGO as a radioligand
Sequence of Mu-type opioid receptor (P35372 whole entry): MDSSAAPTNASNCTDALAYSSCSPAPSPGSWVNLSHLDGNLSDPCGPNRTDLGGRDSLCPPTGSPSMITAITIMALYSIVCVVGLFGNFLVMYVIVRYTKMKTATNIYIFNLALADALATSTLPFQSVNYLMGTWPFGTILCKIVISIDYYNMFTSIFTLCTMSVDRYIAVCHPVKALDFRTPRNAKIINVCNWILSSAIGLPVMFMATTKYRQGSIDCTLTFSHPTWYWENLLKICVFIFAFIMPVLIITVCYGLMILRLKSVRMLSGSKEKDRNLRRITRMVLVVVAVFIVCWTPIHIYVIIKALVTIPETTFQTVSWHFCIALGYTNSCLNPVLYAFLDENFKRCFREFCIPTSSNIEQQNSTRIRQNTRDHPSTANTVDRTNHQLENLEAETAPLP

Compound | Ki [1] [nM] | Ki [2] [nM] | Ki (Mu-type opioid receptor) [nM]
CC(C)C[C@H](NC(=O)[C@H](Cc1ccccc1)NC(=O)CNC(=O)CNC(=O)[C@@H](N)Cc1ccc(O)cc1)C(=O)N[C@@H](CCCN=C(N)N)C(=O)N[C@@H](CCCN=C(N)N)C(=O)N[C@H](C)C(=O)N[C@@H](CCCN=C(N)N)C(=O)N1CCC[C@H]1C(=O)N[C@@H](CCCCN)C(N)=O | 0.19 | 12.2 | 1.97
CC(=O)N[C@@H](Cc1ccc(O)cc1)C(=O)N[C@@H](CCCCN)C(=O)N[C@@H](Cc1c[nH]c2ccccc12)C(=O)N[C@@H](Cc1c[nH]c2ccccc12)C(N)=O (Ac-YKWW-NH2) | 1370 | 3480 | 3590
CC(=O)N[C@@H](Cc1ccc(O)cc1)C(=O)N[C@@H](CCCCN)C(=O)N[C@@H](Cc1c[nH]c2ccccc12)C(=O)N[C@@H](Cc1c[nH]c2ccccc12)C(=O)N[C@@H](CC(C)C)C(=O)N[C@@H](CCCN=C(N)N)C(=O)N[C@@H](CCCN=C(N)N)C(=O)N[C@H](C)C(=O)N[C@@H](CCCN=C(N)N)C(=O)N1CCC[C@H]1C(=O)N[C@@H](CCCCN)C(N)=O (Ac-YKWWLRR[dA]RPK-NH2) | 19.8 | 5320 | 251
